Values after ≈ are worked out from the molar mass of the structure shown. Like-named read-outs stand apart in the source and are kept apart here.
Tests used:
Candida kefyr = assay: Antifungal MIC; assay type: cell-based; conditions: Kluyveromyces marxianus, DSM11954; DSM strain 11954, 48 h
Candida glabrata = assay: Antifungal MIC; assay type: cell-based; conditions: Nakaseomyces glabratus, read-out: MIC
Saccharomyces cerevisiae = assay: Antifungal MIC; assay type: cell-based; conditions: DSM01333, DSM strain 01333, 48 h
Candida tropicalis = assay: Antifungal MIC; assay type: cell-based; conditions: read-out: MIC
Candida parapsilosis = assay: Antifungal MIC; assay type: cell-based; conditions: Lodderomyces parapsilosis, read-out: MIC
plasma corticosterone = assay: Plasma corticosterone in rats after oral dosing (ELISA); assay type: in vivo, Sprague Dawley rats; conditions: for Corticosteroid Levels (mean ± SEM): 4 h after gavage
Experimental: To generate the results shown in FIG. 1, five groups (eight per group) of rats were used. The rats were maintained on a 14/10 hour light/dark cycle and allowed free access to food and water. Each rat was dosed (200 mg drug/kg body weight) via a gastric tube. […] All of the rats were dosed between 2.00 and 3.00 pm and were sacrificed four hours later (between 6.00 and 7.00 pm). Plasma was prepared and the concentration of corticosterone determined by an enzyme linked immuno assay (ELISA). In rats, the predominant active glucocorticoid is corticosterone; in humans, the predominant active glucucorticoid is the closely related molecule cortisol.
The rats were maintained and dosed as described above. Plasma was prepared and the concentration of corticosterone in the plasma determined by ELISA.
The rats were maintained as described above; the drugs were suspended in olive oil, and each rat was dosed once via gastric tube to achieve a dose of 200 mg/kg. All of the rats were dosed at a specific time so that all terminations occurred between 6 and 7 pm. […] Following sacrifice, plasma was prepared, and the concentration of corticosterone in the plasma was determined by ELISA. In the same plasma samples, total cholesterol levels were also determined.
In the Table, corticosterone levels (mean±SEM; ng/mL) were determined four hours after oral gavage of the indicated drug (N=10/group). There was a single control group (dosed with vehicle).
Corticosterone levels (mean±SEM; ng/mL) were determined at the indicated times after oral gavage of the indicated drug at 200 mg/kg. […] The means of the vehicle treated groups are used as the time zero control point.

Cryptococcus neoformans = assay: Antifungal MIC; assay type: cell-based
[1] = Toxicokinetics in the 28 day dog study of DIO-902 (with racemic ketoconazole group a); conditions: beagle, plasma; for AUC(0-t): AUC(0-12); for concentration at 0 h / concentration at 1 h / concentration at 2 h / concentration at 4 h / concentration at 8 h / concentration at 12 h: Drug concentration in plasma;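 for all read-outs here: beagle dogs dosed orally once daily within a 28-day GLP study, 3 animals per sex per group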
[2] = female, po, 2 mg/kg, dogs, 2 mg/kg oral, day 1, F
[3] = female, po, 2 mg/kg, dogs, 2 mg/kg oral, day 28, F
[4] = female, po, 6.5 mg/kg, dogs, 6.5 mg/kg oral, day 28, F
[5] = female, po, 6.5 mg/kg, dogs, 6.5 mg/kg oral, day 1, F
[6] = female, po, 20 mg/kg, dogs, 20 mg/kg oral, day 28, F
[7] = female, po, 20 mg/kg, dogs, 20 mg/kg oral, day 1, F

CC(=O)N1CCN(c2ccc(OC[C@@H]3CO[C@@](Cn4ccnc4)(c4ccc(Cl)cc4Cl)O3)cc2)CC1 [DIO-902, 2S,4R cis-1-acetyl-4-[4-[[2-(2,4-dichlorophenyl)-2-(1H-imidazol-1-ylmethyl)-1,3-dioxolan-4-yl]methoxyl]phenyl]piperazine]
MIC (Candida kefyr): 0.03 µg/mL (≈ 0.0565 µM)
MIC (Candida glabrata; DSM11226, DSM strain 11226, 48 h): 0.5 µg/mL (≈ 0.941 µM)
MIC (Candida glabrata; DSM11950, DSM strain 11950, 48 h): 0.25 µg/mL (≈ 0.47 µM)
MIC (Saccharomyces cerevisiae): 0.25 µg/mL (≈ 0.47 µM)
MIC (Candida tropicalis; DSM11951, DSM strain 11951, 48 h): 0.06 µg/mL (≈ 0.113 µM)
MIC (Candida tropicalis; DSM11952, DSM strain 11952, 48 h): 2 µg/mL (≈ 3.76 µM)
MIC (Candida tropicalis; DSM11953, DSM strain 11953, 48 h): 0.06 µg/mL (≈ 0.113 µM)
MIC (Candida parapsilosis; DSM05784, DSM strain 05784, 48 h): 0.03 µg/mL (≈ 0.0565 µM)
MIC (Candida parapsilosis; DSM11224, DSM strain 11224, 48 h): 0.03 µg/mL (≈ 0.0565 µM)
Corticosteroid Levels (mean ± SEM) (plasma corticosterone; single oral 50 mg/kg): 186 ± 14.9 ng/mL
Corticosteroid Levels (mean ± SEM) (plasma corticosterone; single oral 100 mg/kg): 139 ± 10.9 ng/mL
Corticosteroid Levels (mean ± SEM), time course (plasma corticosterone; single oral 200 mg/kg, 4 h): 98 ± 10 ng/mL
Corticosteroid Levels (mean ± SEM) (plasma corticosterone; single oral 200 mg/kg): 100 ± 8.6 ng/mL
Corticosteroid Levels (mean ± SEM), time course (plasma corticosterone; single oral 200 mg/kg, 8 h): 116 ± 13 ng/mL
Corticosteroid Levels (mean ± SEM), time course (plasma corticosterone; single oral 200 mg/kg, 12 h): 113 ± 8 ng/mL
Corticosteroid Levels (mean ± SEM), time course (plasma corticosterone; single oral 200 mg/kg, 16 h): 133 ± 17 ng/mL
Corticosteroid Levels (mean ± SEM), time course (plasma corticosterone; single oral 200 mg/kg, 20 h): 136 ± 12 ng/mL
Corticosteroid Levels (mean ± SEM), time course (plasma corticosterone; single oral 200 mg/kg, 24 h): 103 ± 14 ng/mL
Corticosteroid Levels (mean ± SEM) (plasma corticosterone; single oral 400 mg/kg): 84 ± 11.6 ng/mL
Corticosteroid Levels (mean ± SEM) (plasma corticosterone; single oral 600 mg/kg): 80 ± 7.8 ng/mL
MIC (Cryptococcus neoformans; DSM11959, DSM strain 11959, 48 h): 0.03 µg/mL (≈ 0.0565 µM)
MIC (Cryptococcus neoformans; DSM11960, DSM strain 11960, 48 h): 0.125 µg/mL (≈ 0.235 µM)
Tmax ([1]; both, oral, 20 mg/kg, Tmax values, dogs, 2, 6.5 and 20 mg/kg, Day 1): 1 to 8 h
Tmax ([1]; both, oral, 20 mg/kg, Tmax values, dogs, 2, 6.5 and 20 mg/kg, Day 28): 1 to 12 h
Cmax ([1]; both, po, 20 mg/kg/day, dogs, 20 mg/kg/day, day 28): 9940 to 9950 ng/mL
AUC(0-t) ([1]; female, po, 2 mg/kg, dogs, 2 mg/kg oral, day 1, F, n = 1): 2570 ng·h/mL
AUC(0-t) ([1]; female, po, 2 mg/kg, dogs, 2 mg/kg oral, day 28, F, n = 1): 2760 ng·h/mL
Cmax [1, 2]: 450 ng/mL
Cmax [1, 3]: 750 ng/mL
concentration at 0 h [1, 2]: < 250 ng/mL
concentration at 1 h [1, 2]: < 250 ng/mL
concentration at 2 h [1, 2]: 270 ng/mL
concentration at 4 h [1, 2]: 280 ng/mL
concentration at 8 h [1, 2]: < 250 ng/mL
concentration at 12 h [1, 2]: < 250 ng/mL
concentration at 0 h [1, 3]: < 250 ng/mL
concentration at 1 h [1, 3]: 290 ng/mL
concentration at 2 h [1, 3]: 520 ng/mL
concentration at 4 h [1, 3]: 300 ng/mL
concentration at 8 h [1, 3]: < 250 ng/mL
concentration at 12 h [1, 3]: < 250 ng/mL
Tmax ([1]; female, po, 2 mg/kg, Tmax Range, dogs, 2 mg/kg oral, day 1, F): 2 to 4 h
Tmax ([1]; female, po, 2 mg/kg, Tmax Range, dogs, 2 mg/kg oral, day 28, F): 1 to 8 h
AUC(0-t) ([1]; female, po, 6.5 mg/kg, dogs, 6.5 mg/kg oral, day 1, F, n = 1): 4700 ng·h/mL
AUC(0-t) [1, 4]: 12900 ng·h/mL
Cmax [1, 5]: 2570 ng/mL
Cmax [1, 4]: 2410 ng/mL
concentration at 0 h [1, 5]: < 250 ng/mL
concentration at 1 h [1, 5]: < 250 ng/mL
concentration at 2 h [1, 5]: 440 ng/mL
concentration at 4 h [1, 5]: 2320 ng/mL
concentration at 8 h [1, 5]: 500 ng/mL
concentration at 12 h [1, 5]: < 250 ng/mL
concentration at 0 h [1, 4]: < 250 ng/mL
concentration at 1 h [1, 4]: 250 ng/mL
concentration at 2 h [1, 4]: 1250 ng/mL
concentration at 4 h [1, 4]: 1850 ng/mL
concentration at 8 h [1, 4]: 1270 ng/mL
concentration at 12 h [1, 4]: 340 ng/mL
Tmax ([1]; female, po, 6.5 mg/kg, Tmax Range, dogs, 6.5 mg/kg oral, day 1, F): 2 to 4 h
Tmax ([1]; female, po, 6.5 mg/kg, Tmax Range, dogs, 6.5 mg/kg oral, day 28, F): 2 to 8 h
AUC(0-t) ([1]; female, po, 20 mg/kg, dogs, 20 mg/kg oral, day 1, F, n = 2): 80600 ng·h/mL
AUC(0-t) [1, 6]: 77800 ng·h/mL
Cmax [1, 7]: 14700 ng/mL
Cmax [1, 6]: 9950 ng/mL
concentration at 0 h [1, 7]: < 250 ng/mL
concentration at 1 h [1, 7]: < 250 ng/mL
concentration at 2 h [1, 7]: 650 ng/mL
concentration at 4 h [1, 7]: 9720 ng/mL
concentration at 8 h [1, 7]: 9950 ng/mL
concentration at 12 h [1, 7]: 5440 ng/mL
concentration at 0 h [1, 6]: 2880 ng/mL
concentration at 1 h [1, 6]: 1780 ng/mL
concentration at 2 h [1, 6]: 2430 ng/mL

— US11478471B2, “Methods and compositions for treating diabetes, metabolic syndrome and other conditions” (priority 2005, dated 2022)
